PubChem BioAssay AID330 (DTP/NCI, 2004)
Where “and” joins values, the source holds several entries; their conditions need not be identical. Equal entries are not always repeated. Inconclusive results and toxic doses are left out.

System: P388 leukemia ip, CD2F1 mice, survival T/C
Assay: NCI In Vivo Anticancer Drug Screen. Data for tumor model P388 Leukemia (intraperitoneal) in CD2F1 (CDF1) mice
Details: endpoint: median survival time, higher = longer survival
Procedure, shortened: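 Mice carrying the transplanted tumor received test compound or vehicle. Survival was recorded in each group, and the value is the treated-group measurement divided by that of the vehicle-treated control group.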

[1] = dose: 60.0 mg/kg/injection, schedule: Q01DX005 (ip), vehicle: saline with Tween-80
[2] = dose: 120.0 mg/kg/injection, schedule: Q01DX005 (ip), vehicle: saline with Tween-80
[3] = dose: 240.0 mg/kg/injection, schedule: Q01DX005 (ip), vehicle: saline with Tween-80
[4] = dose: 25.0 mg/kg/injection, schedule: Q01DX009 (ip), vehicle: saline with Tween-80
[5] = dose: 100.0 mg/kg/injection, schedule: Q01DX001 (ip), vehicle: saline with Tween-80
[6] = dose: 200.0 mg/kg/injection, schedule: Q01DX001 (ip), vehicle: saline with Tween-80
[7] = dose: 50.0 mg/kg/injection, schedule: Q01DX005 (ip), vehicle: saline with Tween-80
[8] = dose: 100.0 mg/kg/injection, schedule: Q01DX005 (ip), vehicle: saline with Tween-80
[9] = dose: 200.0 mg/kg/injection, schedule: Q01DX005 (ip), vehicle: saline with Tween-80
[10] = dose: 50.0 mg/kg/injection, schedule: Q01DX005 (ip), vehicle: saline
[11] = dose: 100.0 mg/kg/injection, schedule: Q01DX005 (ip), vehicle: saline
[12] = dose: 200.0 mg/kg/injection, schedule: Q01DX005 (ip), vehicle: saline

SMILES: c1ccc(Nc2ccc(CN3CCOCC3)cc2)cc1
- T/C (dose: 60.0 mg/kg/injection, schedule: Q01DX005 (ip), vehicle: Klucel (hydroxypropylcellulose) (HPC)): 105 % of control
- T/C (dose: 120.0 mg/kg/injection, schedule: Q01DX005 (ip), vehicle: Klucel (hydroxypropylcellulose) (HPC)): 96 % of control
- T/C (dose: 240.0 mg/kg/injection, schedule: Q01DX005 (ip), vehicle: Klucel (hydroxypropylcellulose) (HPC)): 88 % of control

SMILES: CCOC(=O)c1ccc(N(CC(O)CN=[N+]=[N-])S(=O)(=O)c2ccc(C)cc2)cc1 (stereo not drawn)
- T/C [1]: 112 % of control
- T/C [2]: 102 % of control
- T/C [3]: 96 % of control

SMILES: CN(C)c1nc2ccccn2c1C(=O)c1ccccc1
- T/C (dose: 100.0 mg/kg/injection, schedule: Q04DX003 (ip), vehicle: Klucel (hydroxypropylcellulose) (HPC)): 103 % of control
- T/C (dose: 200.0 mg/kg/injection, schedule: Q04DX003 (ip), vehicle: Klucel (hydroxypropylcellulose) (HPC)): 100 % of control
- T/C (dose: 400.0 mg/kg/injection, schedule: Q04DX003 (ip), vehicle: Klucel (hydroxypropylcellulose) (HPC)): 103 % of control

SMILES: Clc1ccc(N=Cc2c3ccccc3cc3ccccc23)c(Cl)c1
- T/C (dose: 6.25 mg/kg/injection, schedule: Q01DX009 (ip), vehicle: saline with Tween-80): 101 % of control
- T/C (dose: 12.5 mg/kg/injection, schedule: Q01DX009 (ip), vehicle: saline with Tween-80): 101 % of control
- T/C [4]: 93 % of control

SMILES: COc1ccc(SSc2ccc(OC)n[n+]2[O-])[n+]([O-])n1
- T/C (dose: 10.0 mg/kg/injection, schedule: Q01DX001 (ip), vehicle: Klucel (hydroxypropylcellulose) (HPC)): 103 % of control
- T/C (dose: 200.0 mg/kg/injection, schedule: Q01DX001 (ip), vehicle: Klucel (hydroxypropylcellulose) (HPC)): 111 % of control

SMILES: COc1cccc(NCNC2Nc3ccccc3N2)c1
- T/C (dose: 15.0 mg/kg/injection, schedule: Q01DX005 (ip), vehicle: saline with Tween-80): 106 % of control
- T/C (dose: 30.0 mg/kg/injection, schedule: Q01DX005 (ip), vehicle: saline with Tween-80): 107 % of control
- T/C [1]: 107 % of control

SMILES: O=C(O)/C(=C\c1c(Cl)[nH]c2ccccc12)NC(=O)c1ccccc1
- T/C [5]: 103 % of control
- T/C [6]: 99 % of control
- T/C (dose: 400.0 mg/kg/injection, schedule: Q01DX001 (ip), vehicle: saline with Tween-80): 98 % of control

SMILES: Cc1ccc(Nc2ccc(Cl)cc2[N+](=O)[O-])cc1
- T/C (dose: 15.0 mg/kg/injection, schedule: Q01DX005 (ip), vehicle: Klucel + Tween-80): 95 % of control
- T/C (dose: 30.0 mg/kg/injection, schedule: Q01DX005 (ip), vehicle: Klucel + Tween-80): 98 % of control
- T/C (dose: 60.0 mg/kg/injection, schedule: Q01DX005 (ip), vehicle: Klucel + Tween-80): 100 % of control and 94 % of control

SMILES: CCCCCCCCCCN(CCCCCCCCCC)CC(=O)c1ccc2cc(Br)c3ccccc3c2c1
- T/C (dose: 25.0 mg/kg/injection, schedule: Q01DX005 (ip), vehicle: Klucel (hydroxypropylcellulose) (HPC)): 96 % of control
- T/C (dose: 50.0 mg/kg/injection, schedule: Q01DX005 (ip), vehicle: Klucel (hydroxypropylcellulose) (HPC)): 89 % of control
- T/C (dose: 100.0 mg/kg/injection, schedule: Q01DX005 (ip), vehicle: Klucel (hydroxypropylcellulose) (HPC)): 98 % of control

SMILES: CS/C(=N/N=C/c1ccc2ccccc2n1)SS/C(=N/N=C\c1ccc2ccccc2n1)SC
- T/C [7]: 88 % of control
- T/C [8]: 91 % of control
- T/C [9]: 104 % of control

SMILES: O=S(=O)(O)CCCOC1COc2ccccc2OCCOCCOc2ccccc2OC1
- T/C [10]: 99 % of control
- T/C [11]: 101 % of control
- T/C [12]: 98 % of control

SMILES: O=C(O)C1Cc2c([nH]c3ccccc23)C2CCC(=O)N12 (stereo not drawn)
- T/C (dose: 25.0 mg/kg/injection, schedule: Q04DX003 (ip), vehicle: suspension in saline): 106 % of control
- T/C (dose: 50.0 mg/kg/injection, schedule: Q04DX003 (ip), vehicle: suspension in saline): 96 % of control
- T/C (dose: 100.0 mg/kg/injection, schedule: Q04DX003 (ip), vehicle: suspension in saline): 98 % of control
- T/C (dose: 200.0 mg/kg/injection, schedule: Q04DX003 (ip), vehicle: suspension in saline): 98 % of control

SMILES: CCCCCCCCCCCCn1c2nc(=O)[nH]c(=O)c-2nc2ccccc21
- T/C (dose: 3.12 mg/kg/injection, schedule: Q01DX005 (ip), vehicle: saline with Tween-80): 97 % of control
- T/C (dose: 6.25 mg/kg/injection, schedule: Q01DX005 (ip), vehicle: saline with Tween-80): 97 % of control
- T/C (dose: 12.5 mg/kg/injection, schedule: Q01DX005 (ip), vehicle: saline with Tween-80): 90 % of control
- T/C [8]: 87 % of control
- T/C [9]: 91 % of control

SMILES: O=C(O)/C(=N/NC(=O)c1ccccc1)c1ccccc1
- T/C (dose: 100.0 mg/kg/injection, schedule: Q04DX002 (ip), vehicle: Klucel (hydroxypropylcellulose) (HPC)): 98 % of control
- T/C (dose: 200.0 mg/kg/injection, schedule: Q04DX002 (ip), vehicle: Klucel (hydroxypropylcellulose) (HPC)): 98 % of control
- T/C (dose: 400.0 mg/kg/injection, schedule: Q04DX002 (ip), vehicle: Klucel (hydroxypropylcellulose) (HPC)): 92 % of control

SMILES: CCCC[P+](c1ccccc1)(c1ccccc1)c1ccccc1
- T/C (dose: 5.0 mg/kg/injection, schedule: Q01DX009 (ip), vehicle: saline sonified): 118 % of control
- T/C (dose: 10.0 mg/kg/injection, schedule: Q01DX009 (ip), vehicle: saline sonified): 122 % of control
- T/C (dose: 13.2 mg/kg/injection, schedule: Q01DX009 (ip), vehicle: saline sonified): 118 % of control
- T/C (dose: 20.0 mg/kg/injection, schedule: Q01DX009 (ip), vehicle: saline sonified): 118 % of control
- T/C (dose: 30.0 mg/kg/injection, schedule: Q01DX009 (ip), vehicle: saline sonified): 90 % of control

SMILES: CCOC(=O)C(NC(=O)C(Cc1ccc(N(CCCl)CCCl)cc1)NC(C)=O)C(C)C (stereo not drawn)
- T/C (dose: 3.13 mg/kg/injection, schedule: Q04DX003 (ip), vehicle: saline): 100 % of control
- T/C (dose: 6.25 mg/kg/injection, schedule: Q04DX003 (ip), vehicle: saline): 109 % of control
- T/C (dose: 12.5 mg/kg/injection, schedule: Q04DX003 (ip), vehicle: saline): 118 % of control
- T/C [4]: 160 % of control
- T/C (dose: 50.0 mg/kg/injection, schedule: Q01DX009 (ip), vehicle: saline with Tween-80): 180 % of control
- T/C (dose: 50.0 mg/kg/injection, schedule: Q04DX003 (ip), vehicle: saline with Tween-80): 159 % of control
- T/C (dose: 100.0 mg/kg/injection, schedule: Q01DX009 (ip), vehicle: saline with Tween-80): 245 % of control
- T/C (dose: 100.0 mg/kg/injection, schedule: Q04DX003 (ip), vehicle: saline with Tween-80): 163 % of control and 175 % of control
- T/C (dose: 150.0 mg/kg/injection, schedule: Q04DX003 (ip), vehicle: other): 151 % of control
- T/C (dose: 160.0 mg/kg/injection, schedule: Q04DX003 (ip), vehicle: other): 161 % of control
- T/C (dose: 200.0 mg/kg/injection, schedule: Q04DX003 (ip), vehicle: saline with Tween-80): 154 % of control
- T/C (dose: 300.0 mg/kg/injection, schedule: Q04DX003 (ip), vehicle: other): 174 % of control
- T/C (dose: 400.0 mg/kg/injection, schedule: Q04DX003 (ip), vehicle: other): 159 % of control

SMILES: Nc1cccc2cccc([N+](=O)[O-])c12
- T/C (dose: 25.0 mg/kg/injection, schedule: Q01DX001 (ip), vehicle: saline with Tween-80): 97 % of control
- T/C (dose: 50.0 mg/kg/injection, schedule: Q01DX001 (ip), vehicle: saline with Tween-80): 110 % of control
- T/C [5]: 99 % of control
- T/C [6]: 98 % of control

SMILES: O=c1[nH]c(=O)c2cc3cn[nH]c3cc2[nH]1
- T/C [7]: 92 % of control
- T/C [8]: 89 % of control
- T/C [9]: 101 % of control

SMILES: COc1cc2c(cc1O)C(c1cc(O)c(O)c(OC)c1)C(O)(C(=O)O)C(CO)C2O (stereo not drawn)
- T/C [7]: 100 % of control
- T/C [8]: 101 % of control
- T/C [9]: 99 % of control

SMILES: CC1CCCCC12C(C#N)(C#N)C2(C#N)C#N (stereo not drawn)
- T/C (dose: 12.5 mg/kg/injection, schedule: Q04DX003 (ip), vehicle: Klucel (hydroxypropylcellulose) (HPC)): 101 % of control
- T/C (dose: 25.0 mg/kg/injection, schedule: Q04DX003 (ip), vehicle: Klucel (hydroxypropylcellulose) (HPC)): 102 % of control

SMILES: COc1cc2c(cc1OC)C1CC3(CCN1CC2)CC(=O)NC3=O (stereo not drawn)
- T/C [10]: 97 % of control
- T/C [11]: 99 % of control
- T/C [12]: 90 % of control

SMILES: c1ccc(CNSC(c2ccccc2)(c2ccccc2)c2ccccc2)cc1
- T/C (dose: 100.0 mg/kg/injection, schedule: Q04DX002 (ip), vehicle: saline with Tween-80): 101 % of control
- T/C (dose: 200.0 mg/kg/injection, schedule: Q04DX002 (ip), vehicle: saline with Tween-80): 102 % of control
- T/C (dose: 400.0 mg/kg/injection, schedule: Q04DX002 (ip), vehicle: saline with Tween-80): 92 % of control

SMILES: Nc1nnc(/C=C/c2ccccc2)o1
- T/C [1]: 117 % of control
- T/C [2]: 107 % of control
- T/C [3]: 109 % of control
